Laboratory results from ChEMBL document CHEMBL1150953, “Novel betaines from the marine sponge Agelas dispar” (1998).
Converted amounts (≈) assume the structure as drawn.

Columns and labels:
Bacillus subtilis = test: Antibacterial activity against Bacillus subtilis ATCC 6633 after 16 hrs; type: functional; conditions: ATCC 6633, 16 h
Staphylococcus aureus = test: Antibacterial activity against Staphylococcus aureus ATCC 6538 after 16 hrs; type: functional; conditions: ATCC 6538, 16 h

Row | SMILES | MIC (Bacillus subtilis) | MIC (Staphylococcus aureus)
1 | Cn1c(CC(=O)[O-])c[n+](C)c1N [AMINOZOOANEMONIN] | 2.5 µg/mL (≈ 14.8 µM) | 8.5 µg/mL (≈ 50.2 µM)
2 | O=C([O-])c1ccc[n+](CCO)c1 [PYRIDINEBETAINE A] | 3.5 µg/mL (≈ 20.9 µM) | 5 µg/mL (≈ 29.9 µM)
